Legend:
[1] = test system: tyrosine hydroxylase, phosphorylated tyrosine hydroxylase, dopamine transporter, IBA1, GFAP in striatum; test: Western immunoblot of dopaminergic and glial markers in striatal lysates; assay type: in vivo; settings: rat low cohort, 6 mg/kg i.p. daily 7 weeks, vs vehicle
Procedure: Striatal tissue from successfully targeted low cohort rats was homogenized in ice-cold TriZOL lysed using the TissueLyser system. Homogenates were incubated with 20% chloroform and centrifuged at 13,523g for 15 min at 4°C. Protein pellets were washed in methanol twice and resuspended in 1% SDS and heated to 50°C. Total protein concentrations were measured using Pierce BCA Protein Assay Kit and equal amount of protein (10–20 µg) mixed with Laemmli sample buffer were loaded in 4–20% TGX precast gels (Biorad) for gel electrophoresis. Protein was transferred to a PVDF membrane (Biorad) using a Trans Blot Turbo Transfer System, the immunoblots were immediately fixed with 0.4% paraformaldehyde (PFA) for 30 min and stained for total protein using Revert 700 (Licor) for reliable normalization. Revert staining was captured and measured on the Licor Odyssey at 700 nm for 30 s.
Non-specific protein binding was blocked with 5% milk and 0.1% Tween-20 in TBS for 1 h at room temperature, and membranes incubated with primary antibodies overnight at 4°C. The blots were washed with 0.1%TBS-Tween-20, incubated with appropriate horseradish peroxidase-conjugated secondary antibodies (1:2000) at room temperature for 1 h and developed with SuperSignal West Femto Enhancer or Pico Peroxide solutions under a chemiluminescent detection imaging system (Licor Odyssey). The density of the band was quantified using StudioLite software. Relative expression levels were normalized to its own total protein and to vehicle average expression level.

CB2 = test system: CB2; set-up: method as in PMID 27766068; settings: microglia; cited from earlier work
[2] = assay type: in vivo; settings: 6 mg/kg i.p. daily, ~2 h post-dose
Procedure: One week after surgery, animals were randomly selected to receive daily systemic injections of either SMM-189 (intraperitoneal (i.p.), 6 mg/kg, n = 12) or vehicle (i.p., n = 12) and followed for 8 weeks (Figs. 1; n = 2 rats per group were removed due to poor nigral targeting). […] Plasma was also collected at baseline, 4 and 8 weeks post-AAV-hAsyn injections and CSF collected prior to perfusion to measure levels of SMM-189.
Blood was collected from the tail vein at baseline and every 4 weeks post-AAV (~ 2 h post-treatment injection) for plasma to measure SMM-189 levels in low and high cohorts and for PBMCs to immunophenotype circulating immune cells in the high cohort animals. […] Tails were cleaned with ethanol and approximately 400μL of blood drawn from the lateral tail vein using a low dead space 25ga needle and syringe and blood immediately placed into an EDTA tube.
CSF was collected at endpoint from low cohort animals. […] A sterile pulled micropipettes attached to tubing and a syringe punctured into the cisterna magna and clean CSF was aspirated and collected in a 0.2mL Eppendorf and stored at -80°C.
A total of 50 µL aliquots of plasma or CSF were prepared by protein precipitation with 100 µL acetonitrile (spiked with the internal standard d^5-SMM-189) followed by centrifugation at 10,000g for 10 min at 4°C. Chromatographic separation of the supernatant was performed using a Zorbax SB-C18 3.5 μm 4.6 × 150 mm and a Shimadzu HPLC Nexera XR with Solvent Delivery Module LC-20ADXR, CTO-20AC prominence column oven (temperature 40 °C), a DGU-20A5R Degassing Unit, and a SIL-20ACXR autosampler. The aqueous mobile phase (A) was 95% water and 5% acetonitrile (B) was 100% acetonitrile.

PBMCs = test: Multicolor flow cytometry of PBMCs (high cohort); assay type: in vivo, rat
Procedure: An additional cohort of rats (termed “high cohort”) was evaluated to determine effects of SMM-189 on immune cell populations in the brain, resident or infiltrating, and the periphery as measured by flow cytometry (Fig. 1). To ensure infiltrating peripheral immune cells, rats were stereotaxically injected with a higher titer of AAV2/5-human WT Asyn (4.6 × 10^12 vg/mL) and underwent an identical drug treatment timeline with animals sacrificed at 4 (SMM-189: n = 5; vehicle: n = 6) and 8 weeks (SMM-189: n = 7; vehicle: n = 7). At sacrifice, animals were deeply anesthetized with euthasol (i.p., 150 mg/kg) and rapid decapitation performed using a sharp guillotine. Brains were collected at endpoints, and brain immune cells isolated and evaluated using multicolor flow cytometry. Additionally, blood was collected at baseline, 4 and 8 weeks (SMM-189: n = 13; vehicle: n = 13) after stereotaxic surgery for PBMCs isolation to immunophenotype using flow cytometry and for plasma evaluation of SMM-189.
PBMCs were isolated from blood of low cohort rats at euthanasia (8 weeks) for qPCR analysis of immune genes and from blood of high cohort rats at baseline, 4 and 8 weeks after AAV2/5-human WT Asyn and evaluated with flow cytometry for a longitudinal immunophenotype assessment. Red blood cells were lysed using 1x RBC lysis buffer (Biolegend Cat#420301) for 5 min in the dark. Lysis buffer was neutralized by adding 1x HBSS (Gibco Cat#14175095). Cells were pelleted by centrifugation at 400g for 5 min, supernatant removed, and cells washed with HBSS. For the high cohort, cells were resuspended in 200μL of PBS and transferred to a 96-well v-bottom plate for flow cytometry staining. For low cohort, 10,000 cells were lysed in 600μL RLT lysis buffer (Qiagen Cat#79216) + 1% BME, further homogenized by centrifugation through a QiaShredder column (2 min at 21,130g). Lysate was then stored at -80°C and later processed for RNA extraction.
Peripheral and central immune cell staining was performed similarly as previously published protocols. In brief, immune cells were washed and resuspended in PBS, then incubated for 30 min at room temperature in LIVE/DEAD Fixable Red Dead cell stain (ThermoFisher Scientific Cat#L23102; 1:2000). Following two washes in PBS, Fc receptors were blocked with anti-rat CD32 Fc block diluted 1:100 in FACS buffer (1mM EDTA and 0.1% sodium azide in PBS) for 15 min at 4°C. PBMCs were stained for separate myeloid and lymphoid panels and brain immune cells stained with an antibody panel to identify microglia, monocytes and lymphocytes (Table S1-S3). Fluorophore conjugated antibodies diluted with FACS buffer were incubated at 4 °C for 20 min. Cells stained for surface myeloid markers were fixed in 1% PFA for 25 min and washed in FACS.
PBMCs stained with lymphoid panel were further probed intracellularly for transcriptional marker Foxp3 to label […] T cells. […] Then washed and resuspended in FACs buffer. All samples had 10uL of AccuCheck Counting beads (ThermoFisher Cat#PCB100) added to final suspension and cells were run on a LSRII Instrument (BD Biosciences, Franklin Lakes, NJ) with FACSDiva software (BD Biosciences). Results were analyzed using FlowJo 10.8.1 software and brain immune populations of monocytes (classical and non-classical), lymphocytes (CD4 + and CD8+) or microglia and PBMC populations defined by specific strategies (Figure S1-S3).
For PBMC analysis, raw frequencies were normalized across serial runs against vehicle-treated values using the following equation: Raw frequency / (average vehicle frequencies of specific run / average baseline frequencies). For brain immune cell analysis of 8 weeks, samples could not be collected and ran the same day so frequencies were normalized across treatment group at each timepoint using the following equation: raw frequency / (average treatment frequency of specific run 1 / average treatment frequency of specific run 2). […]

[3] = test system: human Asyn (pSer129, proteinase K-resistant, total) in substantia nigra; test: Immunohistochemistry of Asyn species in substantia nigra, optical density; assay type: in vivo; settings: rat low cohort, 6 mg/kg i.p. daily 7 weeks
Procedure: Rats were administered unilateral injections of AAV2/5-human wild-type (WT) Asyn at titers of 2.9–4.3 × 10^11 vector genomes (vg)/mL (termed “low cohort”), which was previously shown to not induce nigral neurotoxicity [27]. Thereby, generating a model with overexpression of human WT Asyn and Asyn-mediated neuroinflammation. One week after surgery, animals were randomly selected to receive daily systemic injections of either SMM-189 (intraperitoneal (i.p.), 6 mg/kg, n = 12) or vehicle (i.p., n = 12) and followed for 8 weeks (Figs. 1; n = 2 rats per group were removed due to poor nigral targeting). […] After blood collection, animals were transcardially perfused with ice-cold PBS and the frontal cortex frozen for gene analysis, the striatum frozen for western blotting analysis, and the midbrain post-fixated in 4% PFA to be processed for immunohistochemistry. A second low cohort of rats (SMM-189 n = 6 or vehicle n = 3 with n = 2 removed due to poor nigral targeting) completed the study and provided extra tissue to perform additional immunohistochemical and western blotting analyses.
Brains were post-fixed in 4%PFA for 48 h and transferred to 30% sucrose and cut at 40 μm on a freezing microtome. In brief, endogenous peroxidase was quenched with 3% hydrogen peroxide, blocked with 8% normal serum, avidin (Vector Cat#SP-2001) and 0.1% Triton-X and incubated overnight at 4°C with biotin (Vectorlabs Cat#SP-2001), normal serum and primary antibodies specific for Asyn (Clone 4B12; BioLegend Cat# 807801, RRID: AB_2564730), pSer129 Asyn (Clone EP1536Y; Abcam Cat# ab51253, RRID: AB_869973), CD68 (Bio-Rad Cat# MCA341R, RRID: AB_2291300), MHCII (Bio-Rad Cat# MCA46GA, RRID: AB_567369), and CD163 (Bio-Rad Cat# MCA342A, RRID: AB_2074557). Tissue was incubated in appropriate biotinylated secondary antibodies (1:200), amplified with Vectastain ABC kit (Vectorlabs Cat#PK-6100) and developed with diaminobenzidine tablets or diaminobenzidine drop kit with nickel (Vector Cat#SK-4100) for CD68 immunostaining. […]

For `O=C(c1ccccc1)c1cc(O)c(-c2cc(Cl)cc(Cl)c2)c(O)c1` [SMM-189], the “myeloid marker IBA1 in striatum, western” value [1] was “no differences”, the “phosphorylated tyrosine hydroxylase in striatal lysates” value [1] was “no significant changes” and the “tyrosine hydroxylase in striatal lysates” value [1] was “no significant changes”. The “astrocyte marker GFAP expression levels in striatum, western” value ([1]; p = 0.0746) was “trend to decrease”, the “dopamine transporter in striatal lysates” value ([1]; trend to increase p = 0.051) was “no significant changes” and the “levels of nuclear phosphorylated cAMP response-element binding protein (pCREB)” value (CB2) was “increased”. The “SMM-189 plasma levels compared to vehicle” value ([2]; rat high cohort, 4 and 8 weeks) was “increased”, the “level of plasma SMM-189 compared to vehicle-treated rats” value ([2]; rat low cohort, 4 and 8 weeks) was “Significant increases” and the “Levels of SMM-189 in the CSF, average ± SEM” value ([2]; rat low cohort, endpoint) was 0.44 ± 0.22 ng/mL. The “MHCII MFI on CD43-His48+ classical monocytes” value (PBMCs; 4 weeks, vs control) was “increased”, the “frequencies of Tregs (CD4+Foxp3+; CD4+Foxp3+CD25+)” value (PBMCs; 8 weeks compared to own baseline) was “elevated” and the granulocytes (PBMCs; 8 weeks, vs vehicle) was “decreases”. For the same compound, the “wound-healing non-classical monocytes (CD43+)” value (PBMCs; 8 weeks, vs vehicle) was “increases”, the “Lymphocyte frequencies of CD4 or CD8 populations (or the CD4 to CD8 ratio)” value (PBMCs; between treatments) was “did not reveal significant differences” and the “counts of both CD4 and CD8+ T cells” value (PBMCs; vs vehicle) was “decreased”. For the same compound, the “circulating classically-activated monocytes (CD43-His48+)” value (PBMCs; weeks 4 and 8, vs vehicle) was “reduced”, the “total human Asyn in substantia nigra, optical density” value ([3]; clone 4B12, vs vehicle) was “not different” and the “pS129-ir optical density in substantia nigra, normalized to vehicle” value ([3]; lesioned nigra) was “reduced”. The “proteinase-K resistant Asyn in substantia nigra, optical density” value ([3]; vs vehicle) was “decreased”.

Source: publication PMC11438102, “Modulation of cannabinoid receptor 2 alters neuroinflammation and reduces formation of alpha-synuclein aggregates in a rat model of nigral synucleinopathy” (Journal of Neuroinflammation, 2024)
